The nature of the series: physchem. The settings on record: octanol/water.
Regarding `Cc1cccc(C)c1` [M-XYLENE], the logP – broadly, a log measure of how a compound divides between an organic and an aqueous phase – was 3.44.

`Cl/C=C/Cl`: the lipophilicity (logP) is 1.51.

In the case of `Cc1cccc2c1Cc1ccccc1-2`, the log partition coefficient (logP) worked out at 4.87. The compound `C=CCCC` returned a lipophilicity (logP) of 2.79. `CCCCCCCCCCC` gave a logP of 6.51. The figure for `ClCCCl` [1,2-DICHLOROETHANE] is 1.46; for `Cc1ccc2cc(C)ccc2c1` it is 4.61; for `Cc1ccc2ccccc2c1` it is 3.96. In turn, `C1CCCCC1` [CYCLOHEXANE] had a lipophilicity (logP) of 3.35. The figure for `O=C(O)CCCC[C@@H]1SC[C@@H]2NC(=O)N[C@@H]21` [BIOTIN] is 0.39; for `C=CCC` it is 2.27. `Nc1nc2ncc(CNc3ccc(C(=O)N[C@@H](CCC(=O)O)C(=O)O)cc3)nc2c(=O)[nH]1` [FOLIC ACID] gave a log partition coefficient (logP) of -2.81. For `c1ccc2c(c1)Cc1ccccc1-2` [FLUORENE] the value was 4.22; for `Cc1ccccc1C` [O-XYLENE], 3.44. The figure for `Cc1c2ccccc2cc2ccc3ccccc3c12` is 6.31; for `Cc1ccc(C)c(C)c1C` it is 4.74. For `Clc1ccccc1Cl` [1,2-DICHLOROBENZENE] the value was 3.57; for `CCCCCC` [HEXANE], 3.87. As to `Clc1cccc(Cl)c1Cl`, the logP stood at 4.28.

In turn, `Cc1ccccc1Cl` yielded a lipophilicity (logP) of 3.5. The figure for `Clc1ccccc1-c1ccccc1` is 4.74; for `Cc1cc2c3ccccc3ccc2c2ccccc12` it is 6.31. Compound `ClC=C(Cl)Cl` [TRICHLOROETHYLENE] displayed a logP of 2.27.

Consider `c1ccc2c(c1)c1ccccc1c1ccccc21`, for which the lipophilicity (logP) was 5.66. The figure for `Cc1cc2ccccc2cc1C` is 4.61; for `Clc1ccc2ccccc2c1` it is 4.03.

Compound `FC(Cl)(Cl)Cl` [TRICHLOROMONOFLUOROMETHANE] showed a log partition coefficient (logP) of 2.44. The figure for `c1ccc2c(c1)cc1ccc3cccc4ccc2c1c34` is 6.12. `Clc1cc(-c2ccccc2)c(Cl)c(Cl)c1Cl` returned a lipophilicity (logP) of 6.88. For `CCC(C)C` the value was 3.21. Regarding `CCc1cccc2ccccc12`, the logP amounted to 4.49. For `c1ccc2c(c1)ccc1ccccc12` the value was 4.49. The figure for `Cc1cccc(Cl)c1` is 3.5.

The compound `CCC(C)(C)c1ccccc1` [tert-Amylbenzene] showed a lipophilicity (logP) of 4.65. The compound `Cc1ccc(C(C)C)cc1` [P-CYMENE] registered a log partition coefficient (logP) of 4.37. The figure for `CCCCCCCl` is 3.58; for `CCCCCCC` [HEPTANE] it is 4.4. For `ClC(Cl)=C(Cl)Cl` [TETRACHLOROETHYLENE] the value was 3.02; for `CC(C)CCC[C@@H](C)[C@H]1CC[C@H]2C3=CC=C4C[C@@H](O)CC[C@]4(C)[C@H]3CC[C@]12C`, 8.65; for `CC(=O)Oc1cc(C)c(OC(C)=O)c2ccccc12` [ACETOMENAPHTHONE], 3.59. The figure for `Cc1c2ccccc2cc2c1ccc1ccccc12` is 6.31; for `c1ccc(-c2ccccc2)cc1` [BIPHENYL] it is 4.03.

In the case of `Clc1cccc(Cl)c1`, the logP amounted to 3.57.

For the compound `Cc1ccc2cc3ccccc3cc2c1`, the logP was found to be 5.14. For `C[S+](C)CC[C@H](N)C(=O)O` [METHYLMETHIONINE SULFONIUM CHLORIDE] the value was 0.28; for `Clc1ccc2c(ccc3ccccc32)c1`, 5.2; for `c1ccc2c(c1)ccc1cc3c(ccc4ccccc43)cc12`, 6.84. For `Cc1cc(O)c2ccccc2c1O` [VITAMIN K3H2], the logP amounted to 2.76.

In the case of `Clc1cccc(Cl)c1-c1ccccc1`, the lipophilicity (logP) was 5.46.

In turn, `CCCCCCCCC` [NONANE] showed a logP of 5.46. The figure for `Cc1c(C)c2c3ccccc3ccc2c2ccccc12` is 6.96.

Compound `Brc1ccccc1Br` showed a logP of 3.59. The figure for `Cc1ccc(Cl)cc1` is 3.5; for `c1ccc2c(c1)ccc1cc3ccc4ccccc4c3cc12` it is 6.84. `CCCCCCCCCC` [DECANE] returned a lipophilicity (logP) of 5.98. Take `CCCCC(C)C`: the log partition coefficient (logP) was 4.27.

In the case of `Cc1ccc(C)c2ccccc12`, the logP was 4.61. Take `Clc1cc(Cl)c(-c2ccccc2Cl)cc1Cl`: the logP came to 6.88. Take `CCCC(C)C`: the log partition coefficient (logP) is 3.74.

Turning to `CC(C)(C)c1ccccc1` [tert-Butylbenzene], the logP is 4.12. Regarding `Clc1cccc2ccccc12`, the lipophilicity (logP) is 4.03. The logP values of the last two compounds are within 0.2 log units of each other. On to `Clc1c(Cl)c(Cl)c(Cl)c(Cl)c1Cl` [PERCHLOROBENZENE], for which the logP was 6.42.

The compound `c1cc2ccc3ccc4ccc5cccc6c(c1)c2c3c4c56` showed a logP of 6.58. As to `Cc1ccc2c(ccc3ccccc32)c1`, the log partition coefficient (logP) came to 5.14. The figure for `Nc1ncnc2c1ncn2[C@@H]1O[C@H](COP(=O)(O)O)[C@@H](O)[C@H]1O` [ADENOSINE PHOSPHATE] is -1.68; for `c1ccc2c(c1)c1cccc3ccc4cccc2c4c31` [BENZO[E]PYRENE] it is 6.12; for `Clc1cc(Cl)c(Cl)cc1Cl` it is 4.74. The figure for `c1ccc2ccccc2c1` is 3.32; for `ClC(Cl)C(Cl)Cl` [1,1,2,2-TETRACHLOROETHANE] it is 2.64; for `Cc1cccc(C)c1C` it is 4.09. `Clc1ccc(-c2ccccc2Cl)cc1` returned a logP of 5.46.

Compound `Cc1cccc2ccc3cc4ccccc4cc3c12` came in with a lipophilicity (logP) of 6.31. `NC1=C2NCN=C2N=CN1` [VITAMIN B4] displayed a log partition coefficient (logP) of -0.09. The figure for `c1ccc2cc3cc4ccccc4cc3cc2c1` is 5.66. The figure for `Cc1cccc2ccccc12` is 3.96; for `Clc1ccc(Cl)c(-c2ccccc2)c1` it is 5.46. Take `Cc1c(C)c(C)c(C)c(C)c1C` [HEXAMETHYLBENZENE]: the logP came out at 6.04. The figure for `C1=CCCCC1` [CYCLOHEXENE] is 2.81; for `BrCCBr` [1,2-DIBROMOETHANE] it is 1.74; for `Clc1ccc(-c2ccccc2Cl)c(Cl)c1` it is 6.17. The figure for `CCCc1ccccc1` is 3.85. For `CCCCl`, the logP worked out at 1.99. For `CC(C)CC(C)(C)C` the value was 4.54; for `CCCCCCCCl`, 4.11. Regarding `Cc1ccc(C)c2c(C)cccc12`, the logP turned out to be 5.26. The compound `c1ccc2c(c1)ccc1c3ccccc3ccc21` had a logP of 5.66.

In the case of `Cc1ccc(C)c(C)c1`, the logP was 4.09.

As to `ClC(Cl)(Cl)Cl` [CARBON TETRACHLORIDE], the lipophilicity (logP) was determined as 2.88. With `CC1=C(/C=C/C(C)=C/C=C/C(C)=C/CO)C(C)(C)CC=C1` [VITAMIN A2], the lipophilicity (logP) was found to be 7.41. In turn, `Cc1ncc(C[n+]2csc(CCO)c2C)c(N)n1` [THIAMINE ION] had a lipophilicity (logP) of -3.93. In the case of `Clc1cc(Cl)c(Cl)c(Cl)c1Cl` [PENTACHLOROBENZENE], the logP amounted to 5.71.

The compound `c1ccc2c(c1)Cc1cc3ccccc3cc1-2` [BENZO[B]FLUORENE] had a log partition coefficient (logP) of 5.4. For `Cc1c2ccccc2cc2ccccc12` the value was 5.14.

The compound `c1ccc2c(c1)Cc1c-2ccc2ccccc12` [BENZO(A)FLUORENE] returned a logP of 5.4. Compound `Cc1cc(C)cc(C)c1` displayed a lipophilicity (logP) of 4.09. For `Cc1cc(C)c(C)cc1C` the value was 4.74; for `c1ccc2cc3c(cc2c1)-c1cccc2cccc-3c12` [BENZO(K)FLUORANTHENE], 6.12. For `Cc1ccc2c3ccccc3c3cccc4ccc1c2c43` the value was 6.77; for `Clc1ccccc1` [CHLOROBENZENE], 2.85; for `c1ccc2c(c1)-c1cccc3c1c-2cc1ccccc13` [BENZO[B]FLUORANTHENE], 6.12. As to `Cc1cc(C)c(C)c(C)c1C`, the log partition coefficient (logP) is 5.39. As to `Cc1c2ccccc2c(C)c2ccccc12`, the log partition coefficient (logP) worked out at 5.79. Turning to `CCc1c2ccccc2cc2c1ccc1ccccc12`, the lipophilicity (logP) came to 6.84. The figure for `Clc1ccc(Cl)cc1` [1,4-DICHLOROBENZENE] is 3.57; for `c1ccc(CCc2ccccc2)cc1` it is 4.89. `c1ccc2c3c(ccc2c1)-c1cccc2cccc-3c12` [BENZO(J)FLUORANTHENE] had a lipophilicity (logP) of 6.12.

For the compound `c1ccc2cc3c(ccc4ccccc43)cc2c1`, the logP stood at 5.66. The figure for `Cc1cccc2c(C)cccc12` is 4.61; for `c1cc2ccc3cccc4ccc(c1)c2c34` [PYRENE] it is 4.95; for `Brc1ccc(Br)cc1` it is 3.87.

Regarding `CCCC` [BUTANE], the logP came out at 2.81. For `c1cc2c3c(cccc3c1)CC2` the value was 4.07; for `c1cc2c3c(c4ccc5ccccc5c4cc3c1)CC2` [CHOLANTHRENE], 6.42.

In turn, `CCCCCCCC` [OCTANE] yielded a lipophilicity (logP) of 4.93.

In turn, `Clc1cc(Cl)cc(Cl)c1` [1,3,5-TRICHLOROBENZENE] returned a logP of 4.28.

`Clc1cc(Cl)c(Cl)c(Cl)c1` came in with a lipophilicity (logP) of 4.99.

`CC(C)c1ccccc1` [ISOPROPYLBENZENE] yielded a log partition coefficient (logP) of 3.72. The figure for `C1CCCC1` [CYCLOPENTANE] is 2.79; for `C1C2CC3CC1CC(C2)C3` it is 3.98. For `Clc1cc(Cl)c(-c2ccccc2)cc1Cl` the value was 6.17; for `CCCl` [ETHYL CHLORIDE], 1.47. Regarding `C1CCCCCC1` [CYCLOHEPTANE], the logP was found to be 3.91.

With `Cc1ccc(C)cc1` [P-XYLENE], the lipophilicity (logP) is 3.44.

`CCCCCl` [BUTYL CHLORIDE] yielded a logP of 2.52.

As for `CCCCc1ccccc1` [BUTYLBENZYL], the logP was 4.74.

Regarding `CCc1ccccc1` [ETHYLBENZENE], the logP amounted to 3.32. In turn, `c1cc2cccc3c4cccc5cccc(c(c1)c23)c54` registered a logP of 6.12. The compound `CCSCC` [DIETHYL SULFIDE] yielded a log partition coefficient (logP) of 1.9. Turning to `CSC`, the logP was found to be 0.842. In turn, `CCCCC` [PENTANE] returned a log partition coefficient (logP) of 3.34.

Take `CCCCCCl`: the lipophilicity (logP) worked out at 3.05.

Take `c1ccc2c(c1)-c1cccc3cccc-2c13` [FLUORANTHENE]: the logP came to 4.95.

The record behind these values is ChEMBL document CHEMBL1795329, “QSPR modeling of octanol/water partition coefficient for vitamins by optimal descriptors calculated with SMILES” (Eur J Med Chem, 2008).
